Experimental data: patent publication US12065445B2, “CDK2 inhibitors and methods of using the same” (Cedilla Therapeutics, Inc., priority 2021, dated 2024)

What was measured:
[1] = tested on: Kuramochi cells labeled with mApple-H2B; test: IncuCyte Cell Proliferation Assay; assay type: cell-based; details: 72 h
In short: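 Cells imaged at 0 and 72 h after compound treatment (10 points, ½ log dilution, 20 μM top), with fluorescent nuclei counted. Fold change in count was normalized to DMSO wells and fitted to dose-response curves to give GI50.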

Kuramochi cells = test: BrdU Cell Proliferation Assay; assay type: cell-based; details: read-out: BrdU - KURAMOCHI.1: IC50
In short: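 Kuramochi cells were seeded at 2,000 cells/well, adhered overnight, then treated with a 10-point, 3-fold compound dilution series for 4 days. Proliferation was measured by a 1-hour BrdU pulse, anti-BrdU peroxidase colorimetric ELISA and 450 nm absorbance. Values were background-subtracted and normalized to DMSO wells.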

SMILES	IC50 [1]	IC50 (Kuramochi cells)
C[C@@H](OCC1CCCCC1)[C@H](NC(=O)[C@@H]1CN(C(=O)c2cn[nH]c2)CC12CN(C(=O)[C@H]1CC1(C)C)C2)C(=O)N1CCC(F)(F)CC1 [I-154A]	0.5 to 5 µM	0.5 to 5 µM
CNC(=O)[C@@H](NC(=O)[C@H]1CN(C(=O)c2cnc(C)s2)CC12CN(C(=O)[C@H]1CC1(C)C)C2)[C@@H](C)OCC1CCCCC1 [I-156B]	> 20 µM	> 10 µM
CNC(=O)[C@@H](NC(=O)[C@@H]1CN(C(=O)c2scnc2Cl)CC12CN(C(=O)[C@H]1CC1(C)C)C2)[C@@H](C)OCC1CCCCC1 [I-157A]	0.5 to 5 µM	0.5 to 5 µM
CNC(=O)[C@@H](NC(=O)[C@@H]1CN(C(=O)c2sc(COC)nc2C)CC12CN(C(=O)[C@H]1CC1(C)C)C2)[C@@H](C)OCC1CCCCC1 [I-162A]	5 to 20 µM	0.5 to 5 µM
CNC(=O)[C@@H](NC(=O)[C@@H]1CN(C(=O)c2scnc2C(F)(F)F)CC12CN(C(=O)[C@H]1CC1(C)C)C2)[C@@H](C)OCC1CCCCC1 [I-163A]	> 20 µM	> 10 µM
C[C@@H](OCC1CCC(F)(F)CC1)[C@H](NC(=O)[C@@H]1CN(C(=O)c2cnn(Cc3ccc(F)cc3)c2)CC12CN(C(=O)[C@H]1CC1(C)C)C2)C(=O)N1CCC(F)(F)CC1 [I-164A]	≤ 0.5 µM	≤ 0.5 µM
C[C@@H](OCC1CCC(F)(F)CC1)[C@H](NC(=O)[C@H]1CN(C(=O)c2cnn(Cc3ccc(F)cc3)c2)CC12CN(C(=O)[C@H]1CC1(C)C)C2)C(=O)N1CCC(F)(F)CC1 [I-164B]	0.5 to 5 µM	0.5 to 5 µM
CNC(=O)[C@@H](NC(=O)[C@@H]1CN(C(=O)c2cnn(Cc3ccccc3)c2)CC12CN(C(=O)[C@H]1CC1(C)C)C2)[C@@H](C)OCC1CCCCCC1 [I-166A]	≤ 0.5 µM	≤ 0.5 µM
CNC(=O)[C@@H](NC(=O)[C@@H]1CN(C(=O)c2cnn(Cc3ccccc3)c2)CC12CN(C(=O)C(C)(C)C)C2)[C@@H](C)OCC1CCCCC1 [I-174A]	0.5 to 5 µM	0.5 to 5 µM
CNC(=O)[C@@H](NC(=O)[C@@H]1CN(C(=O)c2cnc(COC(C)(C)C)s2)CC12CN(C(=O)[C@H]1CC1(C)C)C2)[C@@H](C)OCC1CCCCC1 [I-175A]	≤ 0.5 µM	≤ 0.5 µM
CNC(=O)[C@@H](NC(=O)[C@H]1CN(C(=O)c2cnc(COC(C)(C)C)s2)CC12CN(C(=O)[C@H]1CC1(C)C)C2)[C@@H](C)OCC1CCCCC1 [I-175B]	5 to 20 µM	> 10 µM
C[C@@H](OCc1ccccc1)[C@H](NC(=O)[C@@H]1CN(C(=O)c2cnn(Cc3ccccc3)c2)CC12CN(C(=O)[C@H]1CC1(C)C)C2)C(N)=O [I-176A]	> 20 µM	> 10 µM
CNC(=O)[C@@H](NC(=O)[C@@H]1CN(C(=O)c2cnc(CC3CC3)s2)CC12CN(C(=O)[C@H]1CC1(C)C)C2)[C@@H](C)OCC1CCCCC1 [I-177A]	5 to 20 µM	0.5 to 5 µM
CNC(=O)[C@@H](NC(=O)[C@@H]1CN(C(=O)c2cnc(C3CC3)s2)CC12CN(C(=O)[C@H]1CC1(C)C)C2)[C@@H](C)OCC1CCCCC1 [I-178A]	5 to 20 µM	> 10 µM
CNC(=O)[C@@H](NC(=O)[C@@H]1CN(C(=O)c2cnc(Cl)s2)CC12CN(C(=O)[C@H]1CC1(C)C)C2)[C@@H](C)OCC1CCCCC1 [I-189A]	5 to 20 µM	> 10 µM
CNC(=O)[C@@H](NC(=O)[C@H]1CN(C(=O)c2cnc(Cl)s2)CC12CN(C(=O)[C@H]1CC1(C)C)C2)[C@@H](C)OCC1CCCCC1 [I-189B]	> 20 µM	> 10 µM
CC1(C)C[C@@H]1C(=O)N1CC2(CN(C(=O)c3cnn(Cc4ccccc4)c3)C[C@H]2C(=O)NCc2nnc[nH]2)C1 [I-191A]	> 20 µM	> 10 µM
CC1(C)C[C@@H]1C(=O)N1CC2(CN(C(=O)c3cnn(Cc4ccccc4)c3)C[C@@H]2C(=O)NCc2nnc[nH]2)C1 [I-191B]	> 20 µM	> 10 µM
C[C@@H](OCC1CCCCC1)[C@H](NC(=O)C1CN(C(=O)c2cncs2)CC12CN(C(=O)[C@H]1CC1(C)C)C2)C(=O)N1CCC[C@H](CO)C1 (some centres unmarked) [I-193]	≤ 0.5 µM	≤ 0.5 µM
C[C@@H](OCC1CCCCC1)[C@H](NC(=O)C1CN(C(=O)c2cnn(Cc3ccccc3)c2)CC12CN(C(=O)[C@H]1CC1(C)C)C2)C(=O)N1CCCCC1 (some centres unmarked) [I-194 mixture]	≤ 0.5 µM	≤ 0.5 µM
C[C@@H](OCC1CCCCC1)[C@H](NC(=O)[C@@H]1CN(C(=O)c2cnn(Cc3ccccc3)c2)CC12CN(C(=O)[C@H]1CC1(C)C)C2)C(=O)N1CCCCC1 [I-194A, (S)-6-(1-benzyl-1H-pyrazole-4-carbonyl)-N-((2S,3R)-3-(cyclohexylmethoxy)-1-oxo-1-(piperidin-1-yl)butan-2-yl)-2-((S)-2,2-dimethylcyclopropane-1-carbonyl)-2,6-diazaspiro[3.4]octane-8-carboxamide]	≤ 0.5 µM	≤ 0.5 µM
C[C@@H](OCC1CCCCC1)[C@H](NC(=O)[C@H]1CN(C(=O)c2cnn(Cc3ccccc3)c2)CC12CN(C(=O)[C@H]1CC1(C)C)C2)C(=O)N1CCCCC1 [I-194B]	5 to 20 µM	0.5 to 5 µM

SMILES	IC50 [1]	IC50 (Kuramochi cells)
COC[C@@H]1CCCN(C(=O)[C@@H](NC(=O)C2CN(C(=O)c3cncs3)CC23CN(C(=O)[C@H]2CC2(C)C)C3)[C@@H](C)OCC2CCCCC2)C1 (some centres unmarked) [I-195]	≤ 0.5 µM	≤ 0.5 µM
COC[C@H]1CCCN(C(=O)[C@@H](NC(=O)C2CN(C(=O)c3cncs3)CC23CN(C(=O)[C@H]2CC2(C)C)C3)[C@@H](C)OCC2CCCCC2)C1 (some centres unmarked) [I-196 mixture]	0.5 to 5 µM	≤ 0.5 µM
COC[C@H]1CCCN(C(=O)[C@@H](NC(=O)[C@@H]2CN(C(=O)c3cncs3)CC23CN(C(=O)[C@H]2CC2(C)C)C3)[C@@H](C)OCC2CCCCC2)C1 [I-196A, (S)—N-((2S,3R)-3-(cyclohexylmethoxy)-1-((S)-3-(methoxymethyl)piperidin-1-yl)-1-oxobutan-2-yl)-2-((S)-2,2-dimethylcyclopropanecarbonyl)-6-(thiazole-5-carbonyl)-2,6-diazaspiro[3.4]octane-8-carboxamide]	≤ 0.5 µM	≤ 0.5 µM
COC[C@H]1CCCN(C(=O)[C@@H](NC(=O)[C@H]2CN(C(=O)c3cncs3)CC23CN(C(=O)[C@H]2CC2(C)C)C3)[C@@H](C)OCC2CCCCC2)C1 [I-196B]	0.5 to 5 µM	≤ 0.5 µM
C[C@@H](OCC1CCCCC1)[C@H](NC(=O)C1CN(C(=O)c2cncs2)CC12CN(C(=O)[C@H]1CC1(C)C)C2)C(=O)N1CCC[C@@H](CO)C1 (some centres unmarked) [I-197]	≤ 0.5 µM	0.5 to 5 µM
C[C@@H](OCC1CCCCC1)[C@H](NC(=O)[C@@H]1CN(C(=O)c2cncs2)CC12CN(C(=O)[C@H]1CC1(C)C)C2)C(=O)N1CCOCC1 [I-198]	≤ 0.5 µM	≤ 0.5 µM
C[C@@H](OCC1CCC(F)(F)CC1)[C@H](NC(=O)[C@@H]1CN(C(=O)c2cnn(Cc3ccc(F)cc3)c2)CC12CN(C(=O)[C@H]1CC1(C)C)C2)C(N)=O [I-203]	0.5 to 5 µM	0.5 to 5 µM
CC1(C)C[C@@H]1C(=O)N1CC2(CN(C(=O)c3cnn(Cc4ccccc4)c3)C[C@H]2C(=O)N[C@@H]2CCN(c3ccccc3)C2)C1 [I-207]	5 to 20 µM	≤ 0.5 µM
CNC(=O)[C@@H](NC(=O)[C@@H]1CN(C(=O)c2sc(Cl)nc2C)CC12CN(C(=O)[C@H]1CC1(C)C)C2)[C@@H](C)OCC1CCCCC1 [I-208A]	≤ 0.5 µM	≤ 0.5 µM
CNC(=O)[C@@H](NC(=O)[C@@H]1CN(C(=O)c2sc(C)nc2C)CC12CN(C(=O)[C@H]1CC1(C)C)C2)[C@@H](C)OCC1CCCCC1 [I-213A]	0.5 to 5 µM	0.5 to 5 µM
CNC(=O)[C@@H](NC(=O)[C@H]1CN(C(=O)c2sc(C)nc2C)CC12CN(C(=O)[C@H]1CC1(C)C)C2)[C@@H](C)OCC1CCCCC1 [I-213B]	> 20 µM	> 10 µM
CNC(=O)[C@@H](NC(=O)[C@H]1CN(C(=O)c2scnc2C2CCCC2)CC12CN(C(=O)[C@H]1CC1(C)C)C2)[C@@H](C)OCC1CCCCC1 [I-224A]	> 20 µM	> 10 µM
CNC(=O)[C@@H](NC(=O)[C@@H]1CN(C(=O)c2sc(C(C)C)nc2C)CC12CN(C(=O)[C@H]1CC1(C)C)C2)[C@@H](C)OCC1CCCCC1 [I-227A]	> 20 µM	> 10 µM
C[C@@H](OCC1CCC(F)(F)CC1)[C@H](NC(=O)[C@@H]1CN(C(=O)c2cn[nH]c2)CC12CN(C(=O)[C@H]1CC1(C)C)C2)C(=O)N1CCC(F)(F)CC1 [I-228A]	> 20 µM	> 10 µM
CNC(=O)[C@@H](NC(=O)[C@@H]1CN(C(=O)c2cnc(C(C)(C)C)s2)CC12CN(C(=O)[C@H]1CC1(C)C)C2)[C@@H](C)OCC1CCCCC1 [I-229A]	0.5 to 5 µM	0.5 to 5 µM
CNC(=O)[C@@H](NC(=O)[C@@H]1CN(C(=O)c2scnc2C(C)(C)C)CC12CN(C(=O)[C@H]1CC1(C)C)C2)[C@@H](C)OCC1CCCCC1 [I-231A]	> 20 µM	> 10 µM
CNC(=O)[C@@H](NC(=O)[C@@H]1CN(C(=O)c2sc(Cl)nc2Cl)CC12CN(C(=O)[C@H]1CC1(C)C)C2)[C@@H](C)OCC1CCCCC1 [I-232A]	0.5 to 5 µM	0.5 to 5 µM
CNC(=O)[C@@H](NC(=O)[C@@H]1CN(C(=O)c2nncs2)CC12CN(C(=O)[C@H]1CC1(C)C)C2)[C@@H](C)OCC1CCCCC1 [I-246]	5 to 20 µM	0.5 to 5 µM
CNC(=O)[C@@H](NC(=O)[C@@H]1CN(C(=O)c2cnn(Cc3ccccc3)c2)CC12CN(C(=O)[C@H]1CC1(C)C)C2)[C@@H](C)OCC1C[C@@H](C)C[C@@H](C)C1 (some centres unmarked) [I-249]	0.5 to 5 µM	0.5 to 5 µM
Cc1ccc(CNC(=O)[C@@H]2CN(C(=O)c3cnn(Cc4ccccc4)c3)CC23CN(C(=O)[C@H]2CC2(C)C)C3)nn1 [I-252]	5 to 20 µM	5 to 10 µM
CC1(C)C[C@@H]1C(=O)N1CC2(CN(C(=O)c3cnn(Cc4ccccc4)c3)C[C@H]2C(=O)N2CCN(CC3CCCCC3)C(=O)C2)C1 [I-253]	5 to 20 µM	5 to 10 µM
